Data published in patent US10456387B2, “Phacetoperane for treating of attention deficit hyperactivity disorder” (NLS PHARMA AG, priority 2011, dated 2019).

Tests used:
young Wistar rats [1] = experiment: T-maze test, a model of ADHD (ability to wait / impulsiveness); assay type: in vivo, rat; conditions: for Efficacy compared with methylphenidate in the ability to wait: BLK-010 1 mg/kg IP vs methylphenidate 3 mg/kg IP; for Effect on ability to wait relative to the control: administered IP before the test, BLK-010 1 mg/kg; for Effect on ability to wait relative to the control / Mean, Medication (choices of the large reward deferred by 30 s) / Mean, Cont-Post (choices of the large reward deferred by 30 s): methylphenidate 3 mg/kg; for Mean, Medication (choices of the large reward deferred by 30 s): medication sessions, IP 30 min before test; for Mean, Cont-Post (choices of the large reward deferred by 30 s): post-medication control sessions, one day after medication session 2, phacetoperane 1 mg/kg IP; for Mean, Cont-Pre (choices of the large reward deferred by 30 s): pre-medication control sessions, before any drug, male juvenile Wistar rats, n = 6, sessions of 5 tests
young Wistar rats [2] = conditions: background description of the model; cited from earlier work

SMILES | Efficacy compared with methylphenidate in the ability to wait (young Wistar rats [1]) | Efficacy compared with methylphenidate in the ability to wait (young Wistar rats [1]; listed as BLK-010) | Improvement of impulsiveness, animals responding (young Wistar rats [1]; BLK-010 1 mg/kg IP, n = 6) | Effect on ability to wait relative to the control (young Wistar rats [1]) | Mean, Medication (choices of the large reward deferred by 30 s) (young Wistar rats [1]; phacetoperane 1 mg/kg, n = 6) | Habituation (before and after treatment) (young Wistar rats [1]; phacetoperane 1 mg/kg) | Mean, Cont-Post (choices of the large reward deferred by 30 s) (young Wistar rats [1]; n = 6) | Mean, Cont-Pre (choices of the large reward deferred by 30 s) (young Wistar rats [1]) | Effect on number of times the large but deferred reward is chosen (young Wistar rats [2])
CC(=O)OC(c1ccccc1)C1CCCCN1 (racemic) [Phacetoperane, threo diastereoisomer of alpha-phenyl-2-piperidinemethanol acetate] | always found to be more effective than methylphenidate | significantly and statistically more effective than methylphenidate | found in all the animals | improve the ability to wait | 4.17 | does not lead to any habituation | 0.33 | 1.17 | 
COC(=O)C(c1ccccc1)C1CCCCN1 (stereo not shown) [Methylphenidate, methylphenidate] |  |  |  | improve the ability to wait | 3.67 |  | 0.83 | 1.17 | seems to increase the number of times the large but deferred reward is chosen
